The test has as its system Wnt pathway TCF/LEF. Put plainly: Colo205-LUC-TCF/LEF luciferase reporter assay with or without MG132. The following applies: Colo205-LUC-TCF/LEF cells, 4 hours. The format is cell-based. How it is done: The Colo205-LUC-TCF/LEF cell line is a reporter tool cell stably transfected with the pGL4.49-LUC2-TCF/LEF vector, and its Wnt/β-catenin pathway is continuously activated. After adding inhibitor, the expression of firefly luciferase regulated by the TCF/LEF cis-element decreased, and after adding the detection substrate, the detected light signal decreased accordingly, thus the inhibitory effect of the compound was detected.
Add 100 μL of the compound AN10250484 at a maximum concentration of 20 μM to each well of the 96-well cell culture plate, and make a 3-fold gradient dilution of the compound concentration. Then inoculate each well with 10,000 stable Colo205-LUC-TCF/LEF cells containing 2 μM MG132 (Proteasome inhibitor) (MCE: HY-13259) or 10,000 Colo205-LUC-TCF/LEF cells containing control solvents, which were treated accordingly as positive and negative control wells. Place the cells in a 5% CO2 cell incubator and incubate at 37° C. for 4 hours. After 4 hours, remove the culture medium, add 100 μL of reagent (Promega) containing the corresponding firefly luciferase substrate to each well, and measure the luciferase reporter gene activity. Use SpectraMax to read the luminescence intensity in full-wavelength mode.

This is an account of results in patent US20240085425A1, “BIOMARKER AND APPLICATION THEREOF” (ADLAI NORTYE BIOPHARMA CO., LTD., priority 2022, published 2024).

As to `Cc1nc(C(F)(F)F)ncc1Oc1ccc(CNc2nc(C)c3c(n2)N(C)[C@@H](C)C(=O)N3)cn1` [AN10250484], for the setting “2 μM MG132, FIG. 2”, the “Inhibitory effect of the compound on the transcription of TCF/LEF after adding MG132” value is given as “significantly reduced”. Further, the “Transcriptional activity of Wnt pathway TCF/LEF (luciferase reporter), in words” value (control solvent, FIG. 2) is recorded as “inhibiting Wnt pathway TCF/LEF”.
